In patent US20220009920A1 (GB005, Inc., priority 2020, published 2022) one finds inhibition data, which are given here for three compounds.

Holding throughout (test): Large panel kinase profiling
Holding throughout (assay type): biochemical
Holding throughout (settings): 1 μM test article, 1 mM ATP

One test addresses T1, CSNK2A2/CK2A2 (Homo sapiens, UniProt P19784).
T1 construct: AssayQuant Technologies, Inc. (service laboratory)
An outline of the steps:
(§1)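 Reactions contain 1 mM ATP and 1 μM test article; the CSox peptide sensor reports phosphorylation as fluorescence gain. Temperature is held at 30° C. while signal (360 nm excitation, 485 nm emission) is recorded every 1 min.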

For the next test, the target named is T2, DYRK1A (Homo sapiens, UniProt Q13627).
T2 construct: AssayQuant Technologies, Inc. (service laboratory)
In a few lines:
as §1

A further test has as its target T3, DYRK1B (Homo sapiens, UniProt Q9Y463).
T3 construct: AssayQuant Technologies, Inc. (service laboratory)
In a few lines:
as §1

The next test concerns the target ERN1 (Homo sapiens, UniProt O75460). An outline of the steps: as §1
For the next test, the target named is T4, HIPK3 (Homo sapiens, UniProt Q9H422).
T4 construct: AssayQuant Technologies, Inc. (service provider)
An outline of the steps:
as §1

The next test deals with T5, MAPK3/ERK1 (Homo sapiens, UniProt P27361).
T5 construct: AssayQuant Technologies, Inc. (service provider)
An outline of the steps:
as §1

For another test, the target named is T6, MELK (Homo sapiens, UniProt Q14680).
T6 construct: AssayQuant Technologies, Inc. (assay service)
An outline of the steps:
as §1

The next test concerns the target T7, MERTK/MER (Homo sapiens, UniProt Q12866).
T7 construct: AssayQuant Technologies, Inc. (assay service)
T7 sequence (Q12866 21-999): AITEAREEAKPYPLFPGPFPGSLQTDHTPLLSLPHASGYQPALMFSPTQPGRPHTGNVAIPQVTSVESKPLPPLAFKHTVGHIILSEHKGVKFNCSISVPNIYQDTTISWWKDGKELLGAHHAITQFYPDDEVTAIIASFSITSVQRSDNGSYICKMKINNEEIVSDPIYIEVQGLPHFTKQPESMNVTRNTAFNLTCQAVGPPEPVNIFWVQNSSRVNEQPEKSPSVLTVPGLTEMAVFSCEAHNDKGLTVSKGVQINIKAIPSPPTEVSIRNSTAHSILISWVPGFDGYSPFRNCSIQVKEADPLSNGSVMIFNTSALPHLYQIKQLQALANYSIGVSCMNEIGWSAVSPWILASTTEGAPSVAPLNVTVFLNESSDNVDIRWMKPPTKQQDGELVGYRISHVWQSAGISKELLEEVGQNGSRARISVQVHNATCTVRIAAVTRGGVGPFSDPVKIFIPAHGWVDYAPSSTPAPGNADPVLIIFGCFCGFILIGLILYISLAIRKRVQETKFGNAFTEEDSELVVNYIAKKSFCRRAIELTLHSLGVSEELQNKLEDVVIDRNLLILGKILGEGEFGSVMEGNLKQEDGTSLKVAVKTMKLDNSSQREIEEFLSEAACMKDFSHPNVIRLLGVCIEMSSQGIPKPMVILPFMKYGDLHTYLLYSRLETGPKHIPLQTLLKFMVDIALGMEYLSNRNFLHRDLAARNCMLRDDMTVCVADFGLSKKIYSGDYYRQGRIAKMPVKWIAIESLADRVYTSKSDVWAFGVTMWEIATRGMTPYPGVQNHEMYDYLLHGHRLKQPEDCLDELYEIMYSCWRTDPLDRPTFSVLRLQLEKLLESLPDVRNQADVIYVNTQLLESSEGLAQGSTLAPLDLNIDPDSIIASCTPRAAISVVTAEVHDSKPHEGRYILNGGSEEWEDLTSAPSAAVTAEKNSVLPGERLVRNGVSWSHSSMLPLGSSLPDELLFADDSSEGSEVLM
In a few lines:
as §1

A further test concerns the target PTK2 (Homo sapiens, UniProt Q05397). An outline of the steps:
as §1

For a further test, the target named is T8, SK1 (Homo sapiens, UniProt P57059).
T8 construct: AssayQuant Technologies, Inc. (contract assay)
An outline of the steps: as §1

Structures are written as SMILES.

ERN1, sequence (O75460 19-977, species assumed): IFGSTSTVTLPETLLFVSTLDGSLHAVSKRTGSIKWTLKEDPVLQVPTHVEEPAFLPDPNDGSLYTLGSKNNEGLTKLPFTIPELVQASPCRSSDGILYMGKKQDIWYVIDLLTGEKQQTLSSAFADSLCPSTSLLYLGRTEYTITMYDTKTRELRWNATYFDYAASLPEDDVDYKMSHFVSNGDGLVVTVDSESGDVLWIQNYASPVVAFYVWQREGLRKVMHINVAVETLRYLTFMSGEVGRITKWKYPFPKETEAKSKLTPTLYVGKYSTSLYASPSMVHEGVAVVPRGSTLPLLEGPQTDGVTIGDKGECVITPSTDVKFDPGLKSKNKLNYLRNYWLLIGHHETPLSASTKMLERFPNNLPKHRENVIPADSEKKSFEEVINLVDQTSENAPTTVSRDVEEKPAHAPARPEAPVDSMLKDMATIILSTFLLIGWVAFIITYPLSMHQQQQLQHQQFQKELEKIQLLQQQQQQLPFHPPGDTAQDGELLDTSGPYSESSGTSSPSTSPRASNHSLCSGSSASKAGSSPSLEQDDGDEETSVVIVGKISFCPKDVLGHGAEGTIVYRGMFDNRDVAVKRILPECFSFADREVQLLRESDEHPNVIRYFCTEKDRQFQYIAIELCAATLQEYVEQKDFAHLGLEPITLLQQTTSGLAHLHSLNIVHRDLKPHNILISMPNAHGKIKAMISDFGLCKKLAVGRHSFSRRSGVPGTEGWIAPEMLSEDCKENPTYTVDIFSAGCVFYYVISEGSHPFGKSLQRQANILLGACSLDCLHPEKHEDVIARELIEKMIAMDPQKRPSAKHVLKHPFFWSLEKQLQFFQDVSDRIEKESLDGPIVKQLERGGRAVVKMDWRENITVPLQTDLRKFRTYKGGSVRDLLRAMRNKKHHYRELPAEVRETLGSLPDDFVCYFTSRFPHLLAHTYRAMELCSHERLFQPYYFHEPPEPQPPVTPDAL
T5 sequence (P27361 whole entry): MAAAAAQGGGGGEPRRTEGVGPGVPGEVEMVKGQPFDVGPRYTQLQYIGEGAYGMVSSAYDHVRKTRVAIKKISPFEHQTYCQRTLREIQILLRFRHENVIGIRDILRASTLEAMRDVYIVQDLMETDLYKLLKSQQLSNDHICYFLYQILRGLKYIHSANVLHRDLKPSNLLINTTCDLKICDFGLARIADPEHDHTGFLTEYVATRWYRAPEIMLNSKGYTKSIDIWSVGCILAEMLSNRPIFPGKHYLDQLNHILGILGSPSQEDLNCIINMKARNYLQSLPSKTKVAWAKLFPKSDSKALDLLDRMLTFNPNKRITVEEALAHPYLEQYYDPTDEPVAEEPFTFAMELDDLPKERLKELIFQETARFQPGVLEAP
PTK2, sequence (Q05397 whole entry, species assumed): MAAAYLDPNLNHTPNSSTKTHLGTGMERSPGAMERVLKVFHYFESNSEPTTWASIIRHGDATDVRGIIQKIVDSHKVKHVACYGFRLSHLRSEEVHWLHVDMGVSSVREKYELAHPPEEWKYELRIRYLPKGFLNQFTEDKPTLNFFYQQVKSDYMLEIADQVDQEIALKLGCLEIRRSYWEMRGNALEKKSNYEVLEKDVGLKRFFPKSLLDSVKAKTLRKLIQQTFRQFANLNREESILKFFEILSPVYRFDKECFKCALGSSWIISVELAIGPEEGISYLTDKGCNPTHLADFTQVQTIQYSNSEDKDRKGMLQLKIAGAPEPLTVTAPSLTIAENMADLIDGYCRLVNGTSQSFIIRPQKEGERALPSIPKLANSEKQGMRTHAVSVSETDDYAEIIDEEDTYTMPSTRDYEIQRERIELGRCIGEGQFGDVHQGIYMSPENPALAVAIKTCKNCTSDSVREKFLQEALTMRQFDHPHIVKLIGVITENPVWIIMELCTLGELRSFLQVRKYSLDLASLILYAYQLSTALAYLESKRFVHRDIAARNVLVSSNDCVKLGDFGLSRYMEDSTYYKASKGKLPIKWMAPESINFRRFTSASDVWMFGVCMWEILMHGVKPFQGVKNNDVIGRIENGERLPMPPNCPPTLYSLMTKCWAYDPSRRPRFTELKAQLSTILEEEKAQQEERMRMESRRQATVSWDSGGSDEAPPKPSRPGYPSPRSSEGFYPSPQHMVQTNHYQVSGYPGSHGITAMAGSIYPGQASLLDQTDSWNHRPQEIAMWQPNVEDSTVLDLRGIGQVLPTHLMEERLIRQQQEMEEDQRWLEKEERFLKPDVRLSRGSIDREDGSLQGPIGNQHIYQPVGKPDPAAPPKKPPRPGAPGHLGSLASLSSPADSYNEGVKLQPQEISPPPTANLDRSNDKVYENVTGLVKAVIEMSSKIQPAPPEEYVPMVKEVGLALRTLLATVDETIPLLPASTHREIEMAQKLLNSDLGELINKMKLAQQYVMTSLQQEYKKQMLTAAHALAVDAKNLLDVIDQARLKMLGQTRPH
T1 sequence (P19784 whole entry): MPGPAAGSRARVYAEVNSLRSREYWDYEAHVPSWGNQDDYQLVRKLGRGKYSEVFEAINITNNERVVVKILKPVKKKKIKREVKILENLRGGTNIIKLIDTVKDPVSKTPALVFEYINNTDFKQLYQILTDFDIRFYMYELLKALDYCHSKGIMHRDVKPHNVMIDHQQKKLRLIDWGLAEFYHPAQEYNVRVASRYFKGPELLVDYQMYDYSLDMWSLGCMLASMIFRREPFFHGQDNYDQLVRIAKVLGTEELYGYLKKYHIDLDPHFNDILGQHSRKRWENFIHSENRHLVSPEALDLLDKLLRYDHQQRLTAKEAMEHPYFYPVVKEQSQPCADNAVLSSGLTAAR
T6 sequence (Q14680 whole entry, species assumed): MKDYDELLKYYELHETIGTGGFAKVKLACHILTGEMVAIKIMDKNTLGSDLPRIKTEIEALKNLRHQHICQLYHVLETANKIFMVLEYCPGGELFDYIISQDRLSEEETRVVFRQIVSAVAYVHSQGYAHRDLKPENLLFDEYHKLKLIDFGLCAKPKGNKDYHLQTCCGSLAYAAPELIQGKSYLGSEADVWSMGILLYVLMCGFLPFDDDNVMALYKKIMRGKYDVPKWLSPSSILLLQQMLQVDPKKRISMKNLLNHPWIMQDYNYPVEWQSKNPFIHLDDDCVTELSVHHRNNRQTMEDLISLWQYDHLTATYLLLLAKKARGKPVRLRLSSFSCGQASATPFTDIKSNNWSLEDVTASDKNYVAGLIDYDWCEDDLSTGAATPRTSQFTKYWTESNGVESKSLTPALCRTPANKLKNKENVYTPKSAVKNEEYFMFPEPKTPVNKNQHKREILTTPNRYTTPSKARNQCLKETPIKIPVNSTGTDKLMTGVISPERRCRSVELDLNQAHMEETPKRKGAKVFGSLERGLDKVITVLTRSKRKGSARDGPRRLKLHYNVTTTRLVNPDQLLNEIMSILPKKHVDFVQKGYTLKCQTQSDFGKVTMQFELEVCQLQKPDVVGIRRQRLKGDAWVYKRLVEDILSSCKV
T3 sequence (Q9Y463 whole entry, species assumed): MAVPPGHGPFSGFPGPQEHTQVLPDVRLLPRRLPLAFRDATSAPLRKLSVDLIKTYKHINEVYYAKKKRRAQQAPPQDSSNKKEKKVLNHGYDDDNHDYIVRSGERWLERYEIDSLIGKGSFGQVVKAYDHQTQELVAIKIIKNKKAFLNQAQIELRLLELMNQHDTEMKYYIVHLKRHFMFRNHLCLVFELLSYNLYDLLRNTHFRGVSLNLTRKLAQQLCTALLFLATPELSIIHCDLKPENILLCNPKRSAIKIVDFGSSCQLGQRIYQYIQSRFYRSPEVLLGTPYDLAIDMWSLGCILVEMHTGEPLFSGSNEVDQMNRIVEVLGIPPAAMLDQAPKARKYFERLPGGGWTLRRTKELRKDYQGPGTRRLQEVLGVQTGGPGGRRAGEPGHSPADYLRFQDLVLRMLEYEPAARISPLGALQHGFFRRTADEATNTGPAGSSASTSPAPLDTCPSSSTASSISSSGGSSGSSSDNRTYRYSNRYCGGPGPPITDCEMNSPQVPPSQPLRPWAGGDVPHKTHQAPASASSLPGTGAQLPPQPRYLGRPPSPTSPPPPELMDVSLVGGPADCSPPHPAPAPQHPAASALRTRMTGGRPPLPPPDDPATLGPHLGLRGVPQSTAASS
T8 sequence (P57059 whole entry): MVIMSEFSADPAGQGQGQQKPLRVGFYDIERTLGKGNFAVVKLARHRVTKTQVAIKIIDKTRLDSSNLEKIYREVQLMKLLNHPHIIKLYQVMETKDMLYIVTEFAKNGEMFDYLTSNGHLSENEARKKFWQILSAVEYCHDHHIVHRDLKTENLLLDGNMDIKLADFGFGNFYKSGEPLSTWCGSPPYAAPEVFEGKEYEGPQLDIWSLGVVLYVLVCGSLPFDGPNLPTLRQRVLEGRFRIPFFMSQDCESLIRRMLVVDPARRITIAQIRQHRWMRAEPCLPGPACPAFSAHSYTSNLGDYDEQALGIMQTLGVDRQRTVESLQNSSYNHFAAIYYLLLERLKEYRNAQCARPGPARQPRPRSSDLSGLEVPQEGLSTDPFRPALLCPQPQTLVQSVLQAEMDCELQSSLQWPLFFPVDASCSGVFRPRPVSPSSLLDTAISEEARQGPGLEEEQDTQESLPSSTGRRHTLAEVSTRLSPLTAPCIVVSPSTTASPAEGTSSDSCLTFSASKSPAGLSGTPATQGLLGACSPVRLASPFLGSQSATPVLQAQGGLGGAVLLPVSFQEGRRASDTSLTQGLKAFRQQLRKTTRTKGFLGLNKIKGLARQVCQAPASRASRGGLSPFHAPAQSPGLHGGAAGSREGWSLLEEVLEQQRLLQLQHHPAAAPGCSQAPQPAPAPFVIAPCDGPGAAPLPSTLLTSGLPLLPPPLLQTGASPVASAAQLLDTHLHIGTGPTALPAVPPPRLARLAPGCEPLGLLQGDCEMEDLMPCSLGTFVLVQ

For orientation: inhibition means the change of the read-out against control, counted positive when it falls. Take `C=CC(=O)N1CCC[C@@H](c2c(F)cc(C(N)=O)c3[nH]c4c(c23)CCC4)C1` [Compound 10-2, (S)-8-(1-acryloylpiperidin-3-yl)-7-fluoro-1,2,3,4-tetrahydrocyclo-penta[b]indole-5-carboxamide]: the inhibition at 1 µM was -144% against CSNK2A2/CK2A2; 7.2% against DYRK1A; 6.6% against DYRK1B; -2.9% on ERN1; 34.7% at HIPK3; 5.5% against MAPK3/ERK1. Moreover, the inhibition at 1 µM against MELK is 11.1%; against MERTK/MER it was 14.8%; against PTK2 it was -14.6%; against SK1, 13.5%.
On to `C=CC(=O)N1CCCC(c2c(F)cc(C(N)=O)c3[nH]c4c(c23)CCCCC4)C1` (single isomer, unassigned) [Compound 5-6], for which the inhibition at 1 µM against CSNK2A2/CK2A2 was 11.4%; against DYRK1A it was 20.4%; at DYRK1B, 16.1%; against ERN1, -5.4%; on HIPK3, -11.2%; against MAPK3/ERK1, -22.1%. Besides, the inhibition at 1 µM against MELK is -27.6%; against MERTK/MER, -0.8%; against PTK2 it was -69.1%; at SK1, -13.6%.
`C=CC(=O)N1CCC[C@@H](c2c(F)cc(C(N)=O)c3[nH]c4c(c23)CC2(CC4)CC2)C1` [Compound 6-2, (S)-5-(1-acryloylpiperidin-3-yl)-6-fluoro-1,2,4,9-tetrahydrospiro[carbazole-3,1′-cyclopropane]-8-carboxamide]: the inhibition at 1 µM was -141% at CSNK2A2/CK2A2; -2.2% against DYRK1A; -0.2% on DYRK1B; 3.1% against ERN1; 30.6% against HIPK3; 22.7% against MAPK3/ERK1. Moreover, the inhibition at 1 µM at MELK is -14.5%; on MERTK/MER, 12.4%; against PTK2, 16.5%; against SK1, 4.6%.
